Measured values as given in PMC11676896, “Protective Action of Cannabidiol on Tiamulin Toxicity in Humans—In Vitro Study” (International Journal of Molecular Sciences, 2024).
Structures can show the parent of a compound that is named as a salt.

Key:
[1] = system: primary porcine hepatocytes; parameters: method as in PMID 10682383; details: 250 µM (123.5 µg/mL), 24 h of exposure; cited from earlier work
RAW264.7 macrophages = system: RAW264.7 macrophages; parameters: method as in PMID 35956888; details: cited from earlier work
HepG2 cells [2] = experiment: Cytotoxicity over the five assays (MTT, NRU, TPC, LDH, BrdU); type: cell-based; details: Homo sapiens, HepG2, 72 h, read-out: IC50 values, range over the five assays
Procedure: (§1) The cytotoxic potential of the veterinary drug and its mixtures with cannabidiol at two non-toxic concentrations: 1.56 and 3.15 µg/mL, on the human SH-SY5Y, HepG2 and HEK 293 cell lines was assessed by decreased viability of the cells within five biochemical endpoints: mitochondrial activity and lysosomal activity (MTT assays, reducing the tetrazolium dye MTT 3-(4,5-dimethylthiazol-2-yl)-2,5-diphenyltetrazolium bromide and neutral red uptake (NRU) assays), total protein content (TPC assay), cellular membrane integrity (leakage lactate dehydrogenase (LDH) assay) and DNA synthesis (the bromodeoxyuridine/5-bromo-2′-deoxyuridine incorporation into the DNA cells (BrdU) assay) after 72 h exposition. Data obtained from the measurement of the optical density in these assays were transformed to percentages in relation to the negative control group (0.1% DMSO in medium), considered to be 100% for the MTT, NRU, TPC and BrdU assays and 0% for the LDH assay. 1% Trition-X 100 solution in medium was used as the positive controls, (Figure 3).
The human neuroblastoma (SH-SY5H), hepatoma (HepG2) and kidney cells (HEK 293) cells were purchased from the American Type Culture Collection: ATCCCRL-2266,ATCC HB-8065 and ATCC CRL-1573, respectively. These cells were cultured in Minimum Essential Medium Eagle (MEME) (ATCC). […] Cytotoxicity was assessed after 72 h of exposure of the cells to the compounds. […]

SH-SY5Y cells = experiment: LDH leakage assay (cell membrane integrity); type: cell-based, human; details: 72 h
Procedure: as §1
(§2) The human neuroblastoma (SH-SY5H), hepatoma (HepG2) and kidney cells (HEK 293) cells were purchased from the American Type Culture Collection: ATCCCRL-2266,ATCC HB-8065 and ATCC CRL-1573, respectively. These cells were cultured in Minimum Essential Medium Eagle (MEME) (ATCC). The media were supplemented with 10% FBS, 1% L-glutamine (and 1% antibiotic solution (P4333 Sigma). The cells were maintained in 75 cm^2 cell culture flasks (NUNC) in a humidified incubator at 37 °C in an atmosphere of 5% CO2. The medium was refreshed every two or three days, and the cells were subcultured by 0.25% trypsin–0.02% EDTA after reaching 70–80% confluence. Single cell suspensions were prepared and adjusted to a density of 2 × 10^5 cell/mL^−1 (SH-SY5H), 1 × 10^5 cell/mL^−1 (HepG2) and 1 × 10^5 cell/mL^−1 (HEK-293). The cell suspension was transferred to 96-well plates (100 µL/well) or Lab-Tek chamber slides (8 wells) (Nunc) for staining and incubated for 24 h before the exposure to the studied compounds. Stock solutions of tiamulin fumarate and cannabidiol were prepared in DMSO and diluted with culture medium to obtain a concentration range from 1.56 to 200 µg/mL and 1.56 or 3.156 µg/mL, respectively. The selection of tiamulin concentrations was based on data from the literature and pilot studies. The final concentration of DMSO was 0.1% in the medium. The same final concentrations of the solvent and the 1% Trition-X 100 solution were used as the negative and positive controls, respectively. A total of 500 µM hydrogen peroxide (H2O2) in was used as the positive control in the DCFH assay. […] As a negative control, cultured cells were grown in the absence of studied compounds. Each concentration was tested in six replicates in three independent experiments. Cytotoxicity was assessed after 72 h of exposure of the cells to the compounds. The medium was not changed during the incubation time.
(§3) The integrity of the plasma membrane was assessed through the test of lactate dehydrogenase (LDH) release, which was monitored using the commercially available Cytotoxicity Detection Kit (LDH) (Roche Diagnostics, Warsaw, Poland). The medium (100 µL/well) without cells was transferred into the corresponding wells of an optically clear 96-well flat bottom microplate, and 100 µL reaction mixture was added to each well. Then, the plates were incubated for 30 min at room temperature in darkness. After that time, 50 µL/well of 1 M HCl was added to stop the reaction. The absorbance was measured at 492 nm in a Synergy 2 Multi-Mode Microplate Reader (BiTek® Instruments Inc., Winooski, VT, USA) using a blank as a reference.
(§4) This study was performed in three independent experiments. The obtained results are presented as mean values ± SD (standard deviation). […]

HepG2 cells [3] = experiment: LDH leakage assay (cell membrane integrity); type: cell-based, human; details: HepG2, 72 h
Procedure: as §1, §2, §3, §4

HEK 293 cells = experiment: LDH leakage assay (cell membrane integrity); type: cell-based, human
Procedure: as §1, §2, §3, §4

HepG2 cells [4] = experiment: NRU assay (lysosomal activity); type: cell-based; details: Homo sapiens, HepG2, 72 h, read-out: inhibited concentration (IC50), NRU
Procedure: as §1, with “Data obtained from the measurement of the optical density in these assays were transformed to percentages in relation to the negative control group (0.1% DMSO in medium), considered to be 100% for the MTT, NRU, TPC and BrdU assays and 0% for the LDH assay. 1% Trition-X 100 solution in medium was used as the positive controls, (Figure 3).” left out
The human neuroblastoma (SH-SY5H), hepatoma (HepG2) and kidney cells (HEK 293) cells were purchased from the American Type Culture Collection: ATCCCRL-2266,ATCC HB-8065 and ATCC CRL-1573, respectively. […] Cytotoxicity was assessed after 72 h of exposure of the cells to the compounds. […]
This method is based on staining living cells with neutral red, which readily diffuses through the plasma membrane and accumulates in lysosomes. […] After 10 min of shaking, the absorbance of the dissolved NR was measured using a Synergy 2 Multi-Mode Microplate Reader (BioTek® Instruments Inc., Winooski, VT, USA) at 540 nm using a blank as a reference. […]

CYP3A4 = system: CYP3A4; parameters: method as in PMID 15013817; details: cited from earlier work
[5] = Homo sapiens, read-out: inhibited concentration (IC50), LDH

Which “ROS production in the hepatocyte culture” value [1] does the source give for `C=C[C@]1(C)C[C@@H](OC(=O)CSCCN(CC)CC)[C@]2(C)[C@H](C)CC[C@]3(CCC(=O)[C@H]32)[C@@H](C)[C@@H]1O` [T, tiamulin fumarate] here?
The value was “increased ROS production”.

And the “concentrations that did not result in 50% reduction in the macrophages' viability” value (RAW264.7 macrophages)?
The value was “up to 20 μg/mL”.

And the “concentrations with no significant cytotoxicity” value (RAW264.7 macrophages)?
The value was “less than 5 μg/mL”.

What about the IC50 (HepG2 cells [2]) of the same compound?
Its IC50 is 13.9 to 39.5 µg/mL.

And the “tiamulin concentration that caused disintegration of the cell membrane” value (SH-SY5Y cells)?
The value was 25 µg/mL.

What about the IC50 (SH-SY5Y cells; [5]) of the same compound?
The IC50 was over 200 µg/mL.

What about the “tiamulin concentration that caused disintegration of the cell membrane” value (HepG2 cells [3]) of the same compound?
The value was 25 µg/mL.

What about the IC50 (HepG2 cells [3]; [5]) of the same compound?
Its IC50 is 39.5 ± 1.7 µg/mL.

What about the “tiamulin concentration that caused disintegration of the cell membrane” value (HEK 293 cells; HEK-293, 72 h) of the same compound?
The value was 25 µg/mL.

And the IC50 (HEK 293 cells; Homo sapiens, HEK293, 72 h, read-out: inhibited concentration (IC50), LDH)?
Its IC50 is 76.9 ± 2.3 µg/mL.

What about the IC50 (HepG2 cells [4]) of the same compound?
Its IC50 is 34.7 ± 1 µg/mL.

What about the “effect on CYP3A4” value (CYP3A4) of the same compound?
The value was “strongly blocks CYP3A4”.
